In ChEMBL document CHEMBL3046197, “Relation between Penetration Rates of Pesticides and Partition Coefficients in Topical Application to Spodoptera litura” (J Pestic Sci, 2001):

Experiments:
[1] = tested on: Spodoptera litura; assay: Drug uptake in Spodoptera litura assessed as recovered drug level 0.2 ug/insect after 16 hr; assay type: ADME, organism-based; conditions: in vivo
[2] = tested on: Spodoptera litura; assay: Drug uptake in Spodoptera litura assessed as unchanged drug level 0.2 ug/insect after 8 hr; assay type: ADME, organism-based; conditions: in vivo
[3] = tested on: Spodoptera litura; assay: Drug uptake in Spodoptera litura assessed as surface residue level 0.2 ug/insect after 16 hr; assay type: ADME, organism-based; conditions: in vivo, topical_or_ocular
[4] = tested on: Spodoptera litura; assay: Drug uptake in Spodoptera litura assessed as surface residue level 0.2 ug/insect after 8 hr; assay type: ADME, organism-based; conditions: in vivo
[5] = tested on: Spodoptera litura; assay: Drug uptake in Spodoptera litura assessed as penetrated drug level 0.2 ug/insect after 16 hr; assay type: ADME, organism-based; conditions: in vivo
[6] = Octanol-water partition coefficient, log P of the compound by shake-flask method; assay type: physicochemical
[7] = tested on: Spodoptera litura; assay: Drug uptake in Spodoptera litura assessed as recovered drug level 0.2 ug/insect after 8 hr; assay type: ADME, organism-based; conditions: in vivo
[8] = tested on: Spodoptera litura; assay: Drug uptake in Spodoptera litura assessed as penetrated drug level 0.2 ug/insect after 8 hr; assay type: ADME, organism-based; conditions: in vivo
[9] = tested on: Spodoptera litura; assay: Drug uptake in Spodoptera litura assessed as recovered drug level 0.2 ug/insect after 3 hr; assay type: ADME, organism-based; conditions: in vivo
[10] = tested on: Spodoptera litura; assay: Drug uptake in Spodoptera litura assessed as unchanged drug level 0.2 ug/insect after 3 hr; assay type: ADME, organism-based; conditions: in vivo
[11] = tested on: Spodoptera litura; assay: Drug uptake in Spodoptera litura assessed as penetrated drug level 0.2 ug/insect after 3 hr; assay type: ADME, organism-based; conditions: in vivo
[12] = tested on: Spodoptera litura; assay: Drug uptake in Spodoptera litura assessed as surface residue level 0.2 ug/insect after 3 hr; assay type: ADME, organism-based; conditions: in vivo
[13] = tested on: Spodoptera litura; assay: Drug uptake in Spodoptera litura assessed as surface residue level 0.2 ug/insect after 1 hr; assay type: ADME, organism-based; conditions: in vivo
[14] = tested on: Spodoptera litura; assay: Drug uptake in Spodoptera litura assessed as penetrated drug level 0.2 ug/insect after 1 hr; assay type: ADME, organism-based; conditions: in vivo
[15] = tested on: Spodoptera litura; assay: Drug uptake in Spodoptera litura assessed as penetrated drug level 0.2 ug/insect after 0.5 hr; assay type: ADME, organism-based; conditions: in vivo
[16] = tested on: Spodoptera litura; assay: Drug uptake in Spodoptera litura assessed as recovered drug level 0.2 ug/insect after 1 hr; assay type: ADME, organism-based; conditions: in vivo
[17] = tested on: Spodoptera litura; assay: Drug uptake in Spodoptera litura assessed as recovered drug level 0.2 ug/insect after 0.5 hr; assay type: ADME, organism-based; conditions: in vivo
[18] = tested on: Spodoptera litura; assay: Drug uptake in Spodoptera litura assessed as surface residue level 0.2 ug/insect after 0.5 hr; assay type: ADME, organism-based; conditions: in vivo, topical_or_ocular
[19] = tested on: Spodoptera litura; assay: Drug uptake in Spodoptera litura assessed as unchanged drug level 0.2 ug/insect after 0.5 hr; assay type: ADME, organism-based; conditions: in vivo
[20] = tested on: Spodoptera litura; assay: Drug uptake in Spodoptera litura assessed as penetrated drug level 0.2 ug/insect after 6 hr; assay type: ADME, organism-based; conditions: in vivo
[21] = tested on: Spodoptera litura; assay: Drug uptake in Spodoptera litura assessed as unchanged drug level 0.2 ug/insect after 1 hr; assay type: ADME, organism-based; conditions: in vivo
[22] = tested on: Spodoptera litura; assay: Drug uptake in Spodoptera litura assessed as surface residue level 0.2 ug/insect after 6 hr; assay type: ADME, organism-based; conditions: in vivo
[23] = tested on: Spodoptera litura; assay: Drug uptake in Spodoptera litura assessed as recovered drug level 0.2 ug/insect after 6 hr; assay type: ADME, organism-based; conditions: in vivo
[24] = tested on: Spodoptera litura; assay: Drug uptake in Spodoptera litura assessed as penetrated drug level 0.2 ug/insect after 2 hr; assay type: ADME, organism-based; conditions: in vivo
[25] = tested on: Spodoptera litura; assay: Drug uptake in Spodoptera litura assessed as penetrated drug level 0.2 ug/insect after 4 hr; assay type: ADME, organism-based; conditions: in vivo
[26] = tested on: Spodoptera litura; assay: Drug uptake in Spodoptera litura assessed as recovered drug level 0.2 ug/insect after 2 hr; assay type: ADME, organism-based; conditions: in vivo
[27] = tested on: Spodoptera litura; assay: Drug uptake in Spodoptera litura assessed as recovered drug level 0.2 ug/insect after 4 hr; assay type: ADME, organism-based; conditions: in vivo
[28] = tested on: Spodoptera litura; assay: Drug uptake in Spodoptera litura assessed as surface residue level 0.2 ug/insect after 2 hr; assay type: ADME, organism-based; conditions: in vivo
[29] = tested on: Spodoptera litura; assay: Drug uptake in Spodoptera litura assessed as surface residue level 0.2 ug/insect after 4 hr; assay type: ADME, organism-based; conditions: in vivo
[30] = tested on: Spodoptera litura; assay: Drug uptake in Spodoptera litura assessed as unchanged drug level 0.2 ug/insect after 2 hr; assay type: ADME, organism-based; conditions: in vivo
[31] = tested on: Spodoptera litura; assay: Drug uptake in Spodoptera litura assessed as penetrated drug level 0.2 ug/insect after 24 hr; assay type: ADME, organism-based; conditions: in vivo
[32] = tested on: Spodoptera litura; assay: Drug uptake in Spodoptera litura assessed as surface residue level 0.2 ug/insect after 24 hr; assay type: ADME, organism-based; conditions: in vivo, topical_or_ocular
[33] = tested on: Spodoptera litura; assay: Drug uptake in Spodoptera litura assessed as unchanged drug level 0.2 ug/insect after 4 hr; assay type: ADME, organism-based; conditions: in vivo
[34] = tested on: Spodoptera litura; assay: Drug uptake in Spodoptera litura assessed as recovered drug level 0.2 ug/insect after 24 hr; assay type: ADME, organism-based; conditions: in vivo

CC(C)=C[C@@H]1[C@@H](C(=O)OCN2C(=O)C3=C(CCCC3)C2=O)C1(C)C [(1R)-TRANS-TETRAMETHRIN]
Drug recovery [1]: 80.1%
Drug uptake [2]: 60.3%
Drug uptake [3]: 44.9%
Drug uptake [4]: 63.7%
Drug uptake [5]: 35.2%
logP [6]: 4.73
Drug recovery [7]: 84.9%
Drug uptake [8]: 21.2%

CCOP(=S)(Oc1ccc(C#N)cc1)c1ccccc1 (centres undefined) [CYANOFENPHOS]
Drug recovery [9]: 96.4%
Drug uptake [10]: 37.4%
Drug uptake [11]: 56.5%
Drug uptake [4]: 11.3%
Drug uptake [12]: 39.9%
Drug recovery [7]: 96%
Drug uptake [8]: 84.6%

COP(=O)(OC)Oc1ccc(C#N)cc1 [CYANOPHOS-OXON]
Surface residue [13]: 31.2%
Drug uptake [14]: 65.5%
Drug uptake [15]: 55.4%
Drug recovery [16]: 96.7%
Drug recovery [17]: 89.9%
logP [6]: 0.84
Drug uptake [18]: 34.5%
Drug uptake [19]: 29.3%

COP(=S)(OC)Oc1ccc(C#N)cc1 [CYANOPHOS]
Drug uptake [20]: 72.8%
Drug uptake [21]: 34.3%
Surface residue [13]: 37.4%
Drug uptake [14]: 39.2%
Drug uptake [22]: 8.1%
Drug recovery [23]: 80.9%
Drug recovery [16]: 76.6%
logP [6]: 2.65

CCOc1ccc(NC(=O)OC(C)C)cc1OCC [DIETHENOFENCARB]
Drug recovery [9]: 88.5%
Drug uptake [10]: 52.6%
Drug uptake [11]: 31.9%
Drug recovery [1]: 81.7%
Drug uptake [3]: 18.1%
Drug uptake [5]: 63.5%
Drug uptake [12]: 56.6%
logP [6]: 3.02

COP(=S)(OC)Oc1ccc([N+](=O)[O-])c(C)c1 [FENITROTHION]
Drug uptake [20]: 71%
Drug uptake [21]: 40.9%
Surface residue [13]: 43.6%
Drug uptake [14]: 51.2%
Drug uptake [22]: 10.8%
Drug recovery [23]: 81.8%
Drug recovery [16]: 94.8%

COP(=O)(OC)Oc1ccc([N+](=O)[O-])c(C)c1 [FENITROXON]
Drug recovery [9]: 87.8%
Drug uptake [11]: 62.4%
Drug uptake [15]: 51.5%
Drug recovery [17]: 96.4%
Drug uptake [12]: 25.3%
Drug uptake [18]: 44.9%
Drug uptake [19]: 42.7%

CC1(C)C(C(=O)OC(C#N)c2cccc(Oc3ccccc3)c2)C1(C)C (centres undefined) [FENPROPATHRIN]
Drug uptake [24]: 22%
Drug uptake [25]: 13.1%
Drug recovery [26]: 90.8%
Drug recovery [27]: 82.3%
Drug uptake [28]: 68.8%
Drug uptake [29]: 69.2%
logP [6]: 6
Drug uptake [30]: 66.5%

CCOP(=S)(OCC)Oc1ccc([N+](=O)[O-])cc1 [PARATHION]
Drug uptake [20]: 78.9%
Drug uptake [21]: 56.8%
Surface residue [13]: 60.6%
Drug uptake [14]: 35%
Drug uptake [22]: 10.9%
Drug recovery [23]: 89.8%
Drug recovery [16]: 95.6%

CC(COc1ccc(Oc2ccccc2)cc1)Oc1ccccn1 (centres undefined) [PYRIPROXYFEN]
Drug uptake [31]: 76.4%
Drug uptake [25]: 40.3%
Drug recovery [27]: 96.7%
Drug uptake [32]: 7.6%
Drug uptake [33]: 55.3%
Drug uptake [29]: 56.4%
logP [6]: 5.31
Drug recovery [34]: 84%

CC(C)(C)N(NC(=O)c1ccccc1)C(=O)c1ccccc1 [RH-5849]
Drug recovery [2]: 38.4%
Drug uptake [32]: 50.2%
Drug uptake [4]: 52.3%
